According to patent US20090221520A1, “Polyene Antibiotics, Compositions Containing Said Antibiotics, Method and Micro-Organisms Used to Obtain Same and Applications Thereof” (priority 2005, published 2009):

Assays:
[1] = tested on: Human erythrocytes; experiment: Trials of haemolytic activity (toxicity) on human blood; type: cell-based; details: for haemolytic activity as a total percentage of haemolysis: 2.5% human blood, 37° C., 30 minutes, Example 1
Description: The trials were conducted according to the method described by Gómez-Gómez et al. (Gómez-Gómez, J. M. et al., 1996, Mol. Microbiol. 19: 909-910). The samples of polyenes were first dried and then dissolved in DMSO at an estimated concentration of 10 to 30 mg/mL. Increasing quantities of the different polyenes were taken to a final volume of 100 μL of DMSO and mixed by means of gentle stirring with 500 μL of PBS buffer (Gómez-Gómez, J. M. et al., 1996, cited earlier), containing 2.5% of human blood, or eventually that of horse. After incubation at 37° C. for 30 minutes without stirring, the cells were sedimented by centrifugation and the degree of haemolysis was assessed by means of measuring the absorption at 545 nm. The values corresponding to the total haemolysis were estimated with a suspension of 2.5% of horse blood in distilled water. The human blood (fundamentally erythrocytes) was obtained from local blood banks (Hospital Ramón y Cajal, Madrid); the horse blood came from Oxoid (defibrinated blood). The amphotericin B and the nystatin were obtained from Sigma (catalogue numbers A-4888 and N-3503, respectively) and the pimaricin came from Calbiochem (527962). All these polyenes were tested directly from commercial samples, without any additional purification
In the above experiments it is clear that the modification of the novel amidated polyenes, produced by the genetic recombinants of Streptomyces diastaticus var. 108 gave rise to compounds with high antifungal activity. […] Human erythrocytes were used as cell models for this study (Cybulska B, et al., 2000, Acta Biochim. Pol. 47: 121-131; Gómez-Gómez, J. M. et al., 1996, Mol. Microbiol. 19: 909-910). The haemolytic activity of the novel compounds was assessed (see the section relating to Experimental Methods) against rimocidin and CE-108; amphotericin B and nystatin A were also included. […] It is worth while highlighting the differences in toxicity observed between CE-108 (IIb) and CE-108B (I-1b) with rimocidin (IIa) and rimocidin B (I-1a); while 50% of haemolysis is achieved with 40 to 60 nanomoles for the last two polyenes, a concentration of CE-108 and is amide 6 or 7 times greater is required in order to achieve the same degree of haemolysis.
The trials were conducted on human blood enriched in eritrocytes, as described previously in Example 1.
In order to measure whether other pharmacological properties of the novel tetraenes were different, haemolytic activity trials were conducted and compared with the parent compounds. Human eritrocytes, were used for these tests. It can be pointed out that although the antifungal activities of rimocidin (IIa) and rimocidin C (IIIa) were similar, their toxicities (measured in terms of haemolytic activity) were 2.5-5 times lower for rimocidin C (IIIa) than for rimocidin (IIa).

[2] = tested on: Penicillium chrysogenum, Candida albicans, Aspergillus niger, Candida krusei and Cryptococcus neoformans; experiment: Antifungal activity trials, paper discs on bioassay plates; type: cell-based; details: for antifungal activities compared with the end products rimocidin (IIa) and CE-108 (IIb): measured as in example 1, Example 2; for antifungal activity (in words): paper disc trials, Example 1; for increase of antifungal activity by substitution of the free carboxyl- group for the amide- group: versus parent tetraene, all tested fungi, paper discs 9 mm
Description: P. chysogenum, C. krusei, A. niger, C. albicans and C. neoformans, fungi used for testing antifungal activity, were grown in MPDA medium (composition: 2% malt extract, 2% glucose, 0.1% Bactopeptone).
(§1) The antifungal activity of the novel amidated tetraenes [rimocidin B (I-1a) and CE-108B (I-1b)] was tested against various fungi: Penicillium chrysogenum, Candida albicans, Aspergillus niger, Candida krusei and Cryptococcus neoformans. Increasing quantities of the different tetraenes, dissolved in methanol, were applied to paper discs (9 mm in diameter); following the application, the discs were dried and placed on bioassay plates on which the corresponding test fungi had previously been spread. The activity of these amidated tetraenes was compared with that of the molecules from which they derived [[…]], showing that the biological activity of the amidated polyenes was substantially greater than that of the corresponding tetraenes that they derived from (FIG. 2) in all tested fungi. In all cases, the substitution of the free carboxyl- group for the amide- group increased the antifungal activity by approximately fourfold.
The antifungal activity of the novel non-carboxylated tetraenes rimocidin C (IIIa) and CE-108C (IIIb) was measured against Penicillium chrysogenum, Candida albicans, Aspergillus niger, Candida krusei and Cryptococcus neoformans, in comparison with that of the native tetraenes rimocidin (IIa) and CE-108 (IIb).

[3] = tested on: Penicillium chrysogenum; experiment: Antifungal activity of pimaricin and AB-400 towards P. chrysogenum; type: cell-based; details: for antifungal activity at the tested concentration: P. chrysogenum, a total of 200 ng added in each test
Description: RGU5.3. […] RGU5.3 grown in medium with acetate (FIG. 3A) or glucose (FIG. 3B) as source of carbon, respectively. FIG. 3C illustrates the antifungal activity of pimaricin (IVa) and AB-400 (IVb) towards P. chrysogenum; the samples of polyenes applied were (1): commercial pimaricin (Calbiochem […]), (2): total extract of the fermentation culture of S. sp. RGU5.3 grown in glucose medium; (3) purified AB-400 coming from S. sp. RGU5.3 and (4) pimaricin coming from S. sp. RGU5.3; a total of 200 ng. were added in each test.
as §1
The same results were obtained comparing pimaricin (IVa) and its amidated derivative AB-400 (IVb). Both compounds were purified starting from the isolated strain Streptomyces sp. RGU5.3, as indicated in the section on Experimental Methods. […] In this way, using a fermentation culture containing glucose as the source of carbon and not sodium acetate, the pimaricin/AB-400 balance is 70/30; when the same medium is supplemented with sodium acetate, the production profile is reversed, being AB-400 (IVb) the main polyene compound produced (FIG. 3). […]

[4] = Solubility

14-decarboxy-14-methyl-rimocidin [Rimocidin C (IIIa)]
toxicity (measured in terms of haemolytic activity), times lower than for rimocidin (IIa) [1]: 2.5-5 times
antifungal activities compared with the end products rimocidin (IIa) and CE-108 (IIb) [2]: not significantly different

14-decarboxy-methyl-CE-108 [CE-108C (IIIb)]
antifungal activities compared with the end products rimocidin (IIa) and CE-108 (IIb) [2]: not significantly different

C[C@@H]1C\C=C/C=C\C=C/C=C[C@H](O[C@@H]2O[C@H](C)[C@@H](O)[C@H](N)[C@@H]2O)C[C@@H]2O[C@](O)(C[C@@H](O)C[C@H]3O[C@@H]3/C=C\C(=O)O1)C[C@H](O)[C@H]2C(N)=O [AB-400 (IVb), AB-400]
haemolytic activity of AB-400 compared with commercial pimaricin [1]: did not show significant differences
antifungal activity at the tested concentration [3]: highly active
difference in antifungal activity between AB-400 and pimaricin ([3]; Penicillium chrysogenum): ~1 order of magnitude
solubility compared with the parent / non-amidated compound [4]: increase in their solubility

CCC1C(=O)O[C@H](C)C/C=C/C=C/C=C/C=C/[C@H](OC2OC(C)C(O)C(N)C2O)C[C@@H]2O[C@](O)(CC(O)CCCC(=O)CC1O)C[C@H](O)[C@H]2C(=O)O (stereo partly drawn) [CE-108 (IIb), CE-108]
concentration required to achieve the same degree (50%) of haemolysis, times greater than for rimocidin and rimocidin B [1]: 6 or 7 times
antifungal activity (in words) [2]: low

C[C@@H]1[C@H](O)[C@@H](C)/C=C/C=C/CC/C=C/C=C/C=C/C=C/C(O[C@H]2O[C@H](C)[C@@H](O)[C@H](N)[C@@H]2O)CC2O[C@](O)(CC(O)C(O)CCC(O)CC(O)CC(O)CC(=O)O[C@H]1C)CC(O)C2C(=O)O (stereo partly drawn) [Nystatin A, nystatin A]
haemolytic activity as a total percentage of haemolysis ([1]; 20 nanomoles of polyene): 2.20%
haemolytic activity as a total percentage of haemolysis ([1]; 40 nanomoles of polyene): 49.53%
haemolytic activity as a total percentage of haemolysis ([1]; 60 nanomoles of polyene): 76.80%
haemolytic activity as a total percentage of haemolysis ([1]; 80 nanomoles of polyene): 92.79%
haemolytic activity as a total percentage of haemolysis ([1]; 100 nanomoles of polyene): 100.00%

CCC[C@@H]1C/C=C/C=C/C=C/C=C/[C@H](O[C@@H]2O[C@H](C)[C@@H](O)[C@H](N)[C@@H]2O)C[C@@H]2O[C@](O)(C[C@@H](O)CCCC(=O)C[C@@H](O)[C@H](CC)C(=O)O1)C[C@H](O)[C@H]2C(=O)O [Rimocidin (IIa), rimocidin]
quantity with which 50% of haemolysis is achieved [1]: 40 to 60 nmol

C[C@@H]1C/C=C/C=C/C=C/C=C/[C@H](O[C@@H]2O[C@H](C)[C@@H](O)[C@H](N)[C@@H]2O)C[C@@H]2O[C@](O)(C[C@@H](O)C[C@H]3O[C@@H]3/C=C/C(=O)O1)C[C@H](O)[C@H]2C(=O)O [pimaricin (IVa), pimaricin]
antifungal activity at the tested concentration [3]: no antifungal activity was observed

CE-108B [CE-108B (I-1b)]
concentration required to achieve the same degree (50%) of haemolysis, times greater than for rimocidin and rimocidin B [1]: 6 or 7 times
haemolytic activity compared with the corresponding tetraene it derived from [1]: not significantly different
haemolytic activity, times lower than that of rimocidin [1]: 6 or 7 times
antifungal activity (in words) [2]: almost as high as that of rimocidin
increase of antifungal activity by substitution of the free carboxyl- group for the amide- group [2]: approximately fourfold

rimocidin B [Rimocidin B (I-1a)]
haemolytic activity compared with the corresponding tetraene it derived from [1]: not significantly different
quantity with which 50% of haemolysis is achieved [1]: 40 to 60 nmol
increase of antifungal activity by substitution of the free carboxyl- group for the amide- group [2]: approximately fourfold
